Where “and” joins values, the source holds several entries; their conditions need not be identical. Equal values may be shown once. Read-outs that look alike come from different tables or passages of the source.
Key:
[1] = cited from earlier work
[2] = Single oral dose, randomized, crossover PK-DDI study of voriconazole with clarithromycin; plasma voriconazole by RP HPLC UV-Vis, non-compartmental analysis; type: in vivo, human; conditions: for Cmaax of voriconazole, Mean & std. Deviation / Erate (elimination rate) of voriconazole, Mean & std. Deviation / tmax (time to reach Cmax) of voriconazole, Mean & std. Deviation: single oral dose; for concentration at 0.5 h / concentration at 1 h / concentration at 1.5 h / concentration at 2 h / concentration at 3 h / concentration at 4 h / concentration at 6 h / concentration at 8 h / concentration at 24 h: male, oral, Voriconazole plasma concentration
Protocol: The study designed was a single oral dose, open-labeled, randomized, crossover, and consisted of 02 weeks of washouts in between for evaluating drug-drug interaction in healthy volunteers.
A 2-week washout period was allocated from day 2 to day 15 to avoid the carry-over effect. […] All volunteers took the medication with a glass of water (250 mL). On days 1 and 16 (treatment days), two and 6 hours after drug administration, standard breakfast and lunch were served to all volunteers, respectively.
After taking blood samples, immediately these samples were centrifuged (at 500 rpm for 10–15 min) to separate plasma from blood (RBC) and stored at −80°C till analysis.
The plasma samples were subjected to protein precipitation and drug extraction with acetonitrile (ACN). A fixed volume of plasma (200 μL), ACN (200 μL), and internal standard (i.e., 2 μg/mL of fluconazole), taken into Eppendorf tubes were vortexed (for 5 min) and kept in the centrifuge at 10,000 RPM for 10–15 min for protein separation. Their supernatant (organic layer) layer was cautiously separated and analyzed by the already developed method. Chromatographic conditions of the HPLC-UV method comprised of isocratic mobile-phase ACN: H2O in 60:40 v/v proportions at a flow rate of 1.5 mL/min and UV detection at 254 nm. Then each sample was analyzed at least three times using the Flexar-series HPLC system, Norwalk, USA, by utilizing a C-18 Perkin-Elmer® column (with particulars of 150 mm length, 4.6 mm inner diameter, and 5 μm particle size). The total run time for each sample was ≤7.0 min.
The pharmacokinetic (PK) parameters used for PK-DDI assessment and plasma drug concentration vs. time profile were analyzed statistically through a non-compartmental approach.Pharmacokinetics PK-Summit® (version 2.0.2; Summit Research Services, Ashland, OH) software was used to evaluate all pharmacokinetic parameters. The various non-compartmental pharmacokinetic (PK) parameters calculated were peak plasma concentration (Cmax, µg/mL), time to reach Cmax (tmax, h), the elimination half-life (E-t1/2, h), an area under the curve from time zero to infinity (AUC^0-∞, μg×h/mL), and the area under the concentration-time curve from time zero to time-t (AUC^0-t, μg×h/mL), mean residence time (MRT, h), elimination rate (Erate, 1/h), apparent clearance (CL/Kg, L/h/Kg) and apparent volume of distribution (Vd, L/Kg).
Descriptive statistical tests were performed using SPSS software (version 21.0; IBM Crop; SPSS®; 2012); for a non-compartmental approach Pharmacokinetics PK-Summit® (version 2.0.2; Summit Research Services, Ashland, OH) software and MS-Excel used for results evaluation, and such data were presented graphically. […] The SPSS software (version 21.0; IBM Crop; SPSS®; 2012) procedure MIXED was used with treatment and visits as a fixed effect and subject as a random effect using the Residual maximum likelihood REML method. Sharpiro-Wilk test was used to check the normality of PK parameters. Log transformation was applied to those PK parameters (such as Cmax, MRT, apparent Vd, and E-t1/2) which were not normally distributed. […] These differences were evaluated by the ratios of geometric means between treatments and used a 90% CI for these ratios.

CYP3A4 = tested on: CYP3A4; set-up: method as in Mikus et al., 2006; conditions: read-out: Michaelis-Menten constant (Km) of voriconazole oxidase activity; CYP3A4 expressed in human CYP enzyme; ref Mikus et al., 2006; cited from earlier work
clinical = conditions: human, in vivo
Text: After the second sequence of drug administration, follow-up data were collected for 2 weeks (from day 16 to day 30) from all volunteers regarding any side effects or toxicity-related issues. […] Blurring vision has been reported as a major side effect in the literature ([Theuretzbacher et al., 2006]). […] In the follow-up period, we carefully monitored the aspartate aminotransferase (AST) and alanine transaminase (ALT) biochemical test reports of that volunteer.

[3] = ref Geist et al., 2013; Hohmann et al., 2016; cited from earlier work
[4] = ref Geist et al., 2013; cited from earlier work
[5] = increased, exact percentage not reported, ref Bouatou et al. (2014)
[6] = ref Kakuda et al., (2013), Calcagno et al., (2014)
[7] = increased, exact percentage not reported, ref Motta et al. (2016)
[8] = increased, exact percentage not reported, ref Yasu et al. (2016)
[9] = increased, exact percentage not reported, ref Heinz et al. (2007)
[10] = Voriz (Alone): voriconazole 200 mg × 2 tablets, n = 12
[11] = Voriz + CLRM: voriconazole 200 mg × 2 tablets + clarithromycin 500 mg tablet, n = 12
[12] = human, plasma, 400 mg, Series 1: voriconazole 400 mg alone
[13] = human, plasma, Series 2: voriconazole 400 mg along with clarithromycin 500 mg
[14] = with clarithromycin versus alone, stated as decrease

SMILES: CC[C@H]1OC(=O)[C@H](C)[C@@H](O[C@H]2C[C@@](C)(OC)[C@@H](O)[C@H](C)O2)[C@H](C)[C@@H](O[C@@H]2O[C@H](C)C[C@H](N(C)C)[C@H]2O)[C@](C)(O)C[C@@H](C)CN(C)[C@H](C)[C@@H](O)[C@]1(C)O [Azithromycin]
- ↑AUC of voriconazole (increase by effector drug) ([1]; ref Purkins et al. (2003d)): *↑8%
- ↑Cmax of voriconazole (increase by effector drug) ([1]; ref Purkins et al. (2003d)): *↑18%

SMILES: CN/C(=N/CCSCc1nc[nH]c1C)NC#N [Cimetidine]
- ↑AUC of voriconazole (increase by effector drug) ([1]; ref Purkins et al. (2003b)): *↑22.5%
- ↑Cmax of voriconazole (increase by effector drug) ([1]; ref Purkins et al. (2003b)): *↑18.5%

SMILES: CC[C@H]1OC(=O)[C@H](C)[C@@H](O[C@H]2C[C@@](C)(OC)[C@@H](O)[C@H](C)O2)[C@H](C)[C@@H](O[C@@H]2O[C@H](C)C[C@H](N(C)C)[C@H]2O)[C@](C)(O)C[C@@H](C)C(=O)[C@H](C)[C@@H](O)[C@]1(C)O [Erythromycin]
- ↑AUC of voriconazole (increase by effector drug) ([1]; ref Purkins et al. (2003d)): *↑1%
- ↑Cmax of voriconazole (increase by effector drug) ([1]; ref Purkins et al. (2003d)): *↑8%

SMILES: COc1ccc2nc([S@@+]([O-])Cc3ncc(C)c(OC)c3C)[nH]c2c1 [Esomeprazole]
- ↑AUC of voriconazole (increase by effector drug) [1, 5]: ↑ ^NR*
- ↑Cmax of voriconazole (increase by effector drug) [1, 5]: ↑ ^NR*

SMILES: Cc1cc(C#N)cc(C)c1Oc1nc(Nc2ccc(C#N)cc2)nc(N)c1Br [Etravirine]
- ↑AUC of voriconazole (increase by effector drug) [1, 6]: *↑14%
- ↑Cmax of voriconazole (increase by effector drug) [1, 6]: *↑23%

SMILES: O=C(CCCN1CCC(O)(c2ccc(Cl)cc2)CC1)c1ccc(F)cc1 [Haloperidol]
- ↑AUC of voriconazole (increase by effector drug) [1, 7]: ↑ ^NR*
- ↑Cmax of voriconazole (increase by effector drug) [1, 7]: ↑ ^NR*

SMILES: Cc1c(OCC(F)(F)F)ccnc1C[S+]([O-])c1nc2ccccc2[nH]1 (stereo not shown) [Lanoprazole]
- ↑AUC of voriconazole (increase by effector drug) [1, 8]: ↑ ^NR*
- ↑Cmax of voriconazole (increase by effector drug) [1, 8]: ↑ ^NR*

SMILES: COc1ccc2[nH]c([S+]([O-])Cc3ncc(C)c(OC)c3C)nc2c1 (stereo not shown) [Omeprazole]
- ↑AUC of voriconazole (increase by effector drug) ([1]; ref Wood et al. (2003)): *↑41%
- ↑Cmax of voriconazole (increase by effector drug) ([1]; ref Wood et al. (2003)): *↑15%

SMILES: COc1ccnc(C[S+]([O-])c2nc3ccc(OC(F)F)cc3[nH]2)c1OC (stereo not shown) [Pantoprazole]
- ↑AUC of voriconazole (increase by effector drug) [1, 9]: ↑ ^NR*
- ↑Cmax of voriconazole (increase by effector drug) [1, 9]: ↑ ^NR*

SMILES: CNC(=C[N+](=O)[O-])NCCSCc1ccc(CN(C)C)o1 [Ranitidine]
- ↑AUC of voriconazole (increase by effector drug) ([1]; ref Purkins et al. (2003b)): *↑4%
- ↑Cmax of voriconazole (increase by effector drug) ([1]; ref Purkins et al. (2003b)): *↑3.5%

SMILES: C[C@@H](c1ncncc1F)[C@](O)(Cn1cncn1)c1ccc(F)cc1F [voriconazole, (2R, 3S) -2-(2,4-difluorophenyl) -3-(5-fluora-4pyrimidinyl) -1-(1H −1,2,4-trizole-1-yl) -2-butanol]
- Cmaax of voriconazole, Mean & std. Deviation ([2]; Voriz (Alone): voriconazole 200 mg × 2 tablets, fasted healthy male volunteers n = 12): 2.52 ± 0.21 µg/mL
- Erate (elimination rate) of voriconazole, Mean & std. Deviation [2, 10]: 0.09 h⁻¹ and 0.09 ± 0.02 h⁻¹
- tmax (time to reach Cmax) of voriconazole, Mean & std. Deviation [2, 10]: 2.00 ± 0 h and 2 h
- AUC0-t of voriconazole, % difference ([2]; Voriz + CLRM vs Voriz (Alone)): 16%
- Apparent Vd/kg of voriconazole, % difference ([2]; Voriz + CLRM vs Voriz (Alone)): −23%
- Cmaax of voriconazole, % difference ([2]; Voriz + CLRM vs Voriz (Alone)): 52%
- MRT of voriconazole, % difference ([2]; Voriz + CLRM vs Voriz (Alone)): −10%
- tmax of voriconazole, % difference ([2]; Voriz + CLRM vs Voriz (Alone)): −25%
- Cmaax of voriconazole, Mean & std. Deviation [2, 11]: 3.84 ± 0.562 µg/mL
- Erate (elimination rate) of voriconazole, Mean & std. Deviation [2, 11]: 0.11 h⁻¹ and 0.11 ± 0.02 h⁻¹
- tmax (time to reach Cmax) of voriconazole, Mean & std. Deviation [2, 11]: 1.50 ± 0 h and 1.5 h
- AUC(0-inf) ([2]; human, plasma, po, 400 mg): 9090 ± 790 ng·h/mL
- AUC(0-t) ([2]; human, plasma, po, 400 mg): 8600 ± 720 ng·h/mL
- MRT ([2]; human, plasma, po, 400 mg): 6.16 ± 0.95 h
- half-life ([2]; human, plasma, po, 400 mg): 476 ± 31.8 min
- concentration at 0.5 h [2, 12]: 225 ng/mL
- concentration at 1 h [2, 12]: 1020 ng/mL
- concentration at 1.5 h [2, 12]: 1890 ng/mL
- concentration at 2 h [2, 12]: 2520 ng/mL
- concentration at 3 h [2, 12]: 1320 ng/mL
- concentration at 4 h [2, 12]: 781 ng/mL
- concentration at 6 h [2, 12]: 401 ng/mL
- concentration at 8 h [2, 12]: 170 ng/mL
- concentration at 24 h [2, 12]: 39.1 ng/mL
- concentration at 0.5 h [2, 13]: 378 ng/mL
- concentration at 1 h [2, 13]: 2040 ng/mL
- concentration at 1.5 h [2, 13]: 3840 ng/mL
- concentration at 2 h [2, 13]: 2500 ng/mL
- concentration at 3 h [2, 13]: 995 ng/mL
- concentration at 4 h [2, 13]: 661 ng/mL
- concentration at 6 h [2, 13]: 433 ng/mL
- concentration at 8 h [2, 13]: 224 ng/mL
- concentration at 24 h [2, 13]: 41.8 ng/mL
- decrease in tmax of voriconazole [2, 14]: 25%
- decrease of E-t1/2 of voriconazole [2, 14]: 26%
- decrease of MRT of voriconazole [2, 14]: 10%
- reduction (decrease) in the apparent volume of distribution (Vd) of voriconazole [2, 14]: 23%
- Km (CYP3A4): 235 µM
- Side effect: blurred vision (clinical): Blurred vision was observed in two volunteers
- Side effect: dizziness (clinical): One of our volunteers had felt dizziness
- Cmax (clinical; male): 5000 ng/mL
- Duration of blurred vision (clinical; male): 10 to 15 min
- oral bioavailability (B.A) [3]: 96%
- protein binding [4]: 58%

Source: article PMC10288581 (Frontiers in Pharmacology, 2023)
